# Measured values from PMC11931052, “Efficacy of dispirotripiperazine PDSTP in a golden Syrian hamster model of SARS-CoV-2 infection” (Frontiers in Microbiology, 2025).
# System: SARS-CoV-2 BA.4/5 variant
# Type: cell-based
# Conditions: Calu-3 cells; PDSTP 20 and 4 μM; plaque assay
smiles,measurement,value
"Cc1nc(N2CC[N+]3(CC2)CC[N+]2(CCNCC2)CC3)c([N+](=O)[O-])c(N2CC[N+]3(CC2)CC[N+]2(CCNCC2)CC3)n1.Cl.Cl.O.O.O.O.O.O.O.O.O.[Cl-].[Cl-].[Cl-].[Cl-] [PDSTP, 3,3′-(2-methyl-5-nitropyrimidine-4,6-diyl)bis-3,12-diaza-6,9-diazonia-dispiro[5.2.5.2]hexadecane tetrachloride dihydrochloride nonahydrate]","Effect on viral titers, BA.4/5 variant",strongly reduce viral titers
